From patent US20240391942A1 (priority 2021, published 2024)

What was measured:
Assay in all cases: cells
Format in all cases: cell-based
[1] = system: SK-HEP-1; details: Homo sapiens, SK-HEP1, 72 h
[2] = system: A549; details: Homo sapiens, A549, 72 h
[3] = system: NCI-H1299; details: Homo sapiens, NCI-H1299, 72 h
[4] = system: A-431; details: Homo sapiens, A-431, 72 h
[5] = system: HCC827; details: Homo sapiens, HCC827, 72 h
[6] = system: SK-OV-3; details: Homo sapiens, SK-OV-3, 72 h
[7] = system: U-937; details: Homo sapiens, U-937, 72 h
[8] = system: A-375; details: Homo sapiens, A-375, 72 h

## CN[C@@H]1C[C@H]2O[C@@](C)([C@@H]1OC)n1c3ccccc3c3c4c(c5c6ccccc6n2c5c31)C(=O)NC4 [Staurosporine]
[1]
  IC50: 16.9 nM
[2]
  IC50: 13.1 nM
[3]
  IC50: 9.2 nM
[4]
  IC50: 21.1 nM
[5]
  IC50: 16.1 nM
[6]
  IC50: 28 nM
[7]
  IC50: 13.9 nM
[8]
  IC50: 18 nM
